This is an account of results in patent US20190247353A1, “ACNE STRAIN-SELECTIVE ANTIBACTERIAL AGENT” (MOMOTANI JUNTENKAN CO., LTD., priority 2016, published 2019).

In general, MIC refers to the smallest concentration in the dilution series that meets the test's criterion for growth inhibition.

In brackets after ≈: the same amount, converted by molar mass. Where two headings read alike, the source gives them in different places.

Common to all, as to assay type: cell-based, Propionibacterium acnes
For assay [1], the system named is dominant strain in acne patients (RT4 strain and/or RT5 strain). The experiment in a line: MIC against dominant strain in acne patients. The settings on record: Cutibacterium acnes, in the pH range tested in the Examples. On the procedure: (§1) The antibacterial activity of a test substance was determined based on the minimum inhibitory concentration (MIC). An MIC was measured according to the broth microdilution method which is the standard method of Japanese Society of Chemotherapy.
(§2) Each of strain suspensions (5.0×10^4 cfu/mL) was aliquoted in a 96-well round bottom microplate, each of the test substance (fatty acid concentration 10,000 μg/mL) was added at a 1/10 volume to the aliquot and mixed to prepare measurement samples (fatty acid concentration: 1,000 μg/mL). Measurement samples in 2-fold dilution series were prepared using the strain suspension (fatty acid concentration from 0.48 to 1,000 μg/mL). Using a sample containing only the solvent (DMSO) as a control, it was confirmed that the influence of the solvent on the growth of each strain could be neglected.
(§3) The measurement samples were incubated under an anaerobic condition at 37° C. for 2 days. The presence or absence of a precipitation of test microbial cells after the incubation was examined and the minimum concentration at which the precipitation of microbial cells […] was regarded as the MIC (μg/mL) of the test substance against the acne bacterium strain.

A further assay relates to HL045PA1 strain (RT4). The assay is described as follows: MIC by broth microdilution method, HL045PA1 strain. As to conditions: Cutibacterium acnes, PA1; Example 6, method as Example 1; read-out: MIC against acne bacterium strain HL045 PA1 strain (RT4). The procedure:
as §1, §2, §3
(§4) The MIC of each of the following test substances was measured substantially in the same manner as in Example 1 (Table 12) except that a suspension of test bacterium strains was prepared using the dominant strain in acne patients (HL005PA1 strain (HM-492^†, RT4 strain), […] (HM-524^†, RT4 strain), HL045PA1 strain (HM-516^†, RT4 strain), or HL043PA2 strain (HM-514^†, RT5 strain)), or the dominant strain in healthy subjects (HL110PA4 strain (HM-555^†, RT6 strain) instead of the dominant strains in acne patients (HL053PA1 strain (RT4 strain) and HL043PA1 strain (RT5 strain)) and the dominant strain in healthy subjects (HL110PA3 strain (RT6 strain) used in Examples 1 to 3.
(In general: In broth dilution the organism is exposed to a series of concentrations in liquid medium.)

The test system of the next assay is HL005PA1 strain (RT4). The assay is described as follows: MIC by broth microdilution method, HL005PA1 strain. As to conditions: Cutibacterium acnes, PA1; Example 6, method as Example 1; read-out: MIC against acne bacterium strain HL005 PA1 strain (RT4). On the procedure: as §1, §2, §3, §4
The next assay relates to HL110PA3 strain (RT6). The assay is described as follows: MIC by broth microdilution method, HL110PA3 strain. As to conditions: Cutibacterium acnes, read-out: MIC against acne bacterium strain HL110PA3 strain (RT6). On the procedure: An MIC is measured herein according to the broth microdilution method which is the standard method of Japanese Society of Chemotherapy.
as §1
One-loopful of each acne bacterium strain listed in Table 1 was scraped off and inoculated into 5 mL of a GAM broth slant agar medium (pH 7.0, Nissui Pharmaceutical Co., Ltd.).
The inoculated acne bacterium strain was precultured at 37° C. in a nitrogen atmosphere (anaerobic condition) for 48 hours. The precultured microbial cells were diluted in a modified GAM broth liquid medium (pH 6.0) to a concentration of 5.0×10^4 cfu/mL (viable cell count per OD660=1 is 2.0×10^9 cfu/mL), to prepare strain suspensions.
Each fatty acid (Tokyo Chemical Industry Co., Ltd.) listed in Table 2 was dissolved in dimethylsulfoxide (DMSO) as a solvent such that the concentration became 10,000 μg/mL, and used as a test substance.
Each of strain suspensions (5.0×10^4 cfu/mL) was aliquoted in a 96-well round bottom microplate, each of the test substance (fatty acid concentration 10,000 μg/mL) was added at a 1/10 volume to the aliquot and mixed to prepare measurement samples (fatty acid concentration: 1,000 μg/mL). Measurement samples in 2-fold dilution series were prepared using the strain suspension (fatty acid concentration from 0.48 to 1,000 μg/mL).
[…] The presence or absence of a precipitation of test microbial cells after the incubation was examined and the minimum concentration at which the precipitation of microbial cells […] was regarded as the MIC (μg/mL) of the test substance against the acne bacterium strain.

For assay [2], the system named is HL053PA1 strain (RT4 strain). The assay is described as follows: Time course of viable cell count, HL053PA1 strain. As to conditions: 15 μg/mL, pH 6.0, anaerobic 37° C., 0 to 44 hours (FIG. 1a). The procedure:
(§5) To each strain suspension (pH 6.0, 5.0×10^5 cfu/mL) of the acne bacterium strain (HL053PA1 strain (RT4 strain), HL043PA1 strain (RT5 strain), and HL110PA3 strain (RT6 strain)) prepared in the same manner as in Example 1, pentadecanoic acid (C15:0) was added to mix together (final concentration of a fatty acid of 15 μg/mL, and final concentration of solvent DMSO of 0.5%), and each the mixture was statically cultured at 37° C. in a nitrogen atmosphere (anaerobic condition). Using a sample to which only DMSO was added at 0.5% (final concentration) as a control, it was confirmed that the influence of the solvent on the growth of each strain could be neglected.
(§6) The viable cell count in the culture solution was measured at 0, 2, 8, 18, 30 and 44 hours after the start of culturing. A viable cell count (cfu/mL) was calculated from the number of emerged colonies after culturing part of the culture solution on a GAM broth agar plate under anaerobic conditions for 3 days (FIG. 1).

Assay [3] has as its system HL043PA1 strain (RT5 strain). The experiment in a line: Time course of viable cell count, HL043PA1 strain. The settings on record: 15 μg/mL, pH 6.0, anaerobic 37° C., 0 to 44 hours (FIG. 1b). On the procedure: as §5, §6
[4] abbreviates: 48 h, pH 6.0 modified GAM broth, anaerobic, 37° C., 2 days (Example 1).
The mark [5] stands for this setting: 72 h, pH 5.5, estimated from the growth on day 3.
Setting [6] is: 96 h, pH 5.0, estimated from the growth on day 4.

Regarding `CCCCCCCCCCCCCCCCC(=O)O` [Heptadecanoic acid (C17:0), Heptadecanoic acid], the MIC in assay [1] is ≤ 62.5 µg/mL; in the assay with HL045PA1 strain (RT4) it was 125 µg/mL (≈ 462 µM); in the assay with HL005PA1 strain (RT4) it was 62.5 µg/mL (≈ 231 µM); in the assay with HL110PA3 strain (RT6) (setting [4]) it was > 1000 µg/mL; in the assay on HL110PA3 strain (RT6) (setting [5]), > 1000 µg/mL; in the assay on HL110PA3 strain (RT6) (setting [6]), > 1000 µg/mL. Also, the MIC with HL110PA3 strain (RT6) (pH 6.5) is > 1000 µg/mL; in the assay on HL110PA3 strain (RT6) (pH 7.0), 1000 µg/mL (≈ 3700 µM).
In the case of `CCCCCCCCCCCCCCC(=O)O` [Pentadecanoic acid (C15:0), Pentadecanoic acid], the “Growth of the HL053PA1 strain (RT4 strain), viable cell count time course” value in assay [2] was “bacteriostatically suppressed”. Also, the MIC with HL045PA1 strain (RT4) is 3.9 µg/mL (≈ 16.1 µM); with HL005PA1 strain (RT4), 3.9 µg/mL (≈ 16.1 µM); in the assay with HL110PA3 strain (RT6) (setting [4]), 250 µg/mL (≈ 1030 µM); in the assay on HL110PA3 strain (RT6) (setting [5]) it was > 1000 µg/mL; in the assay with HL110PA3 strain (RT6) (setting [6]) it was > 1000 µg/mL; with HL110PA3 strain (RT6) (pH 6.5), 250 µg/mL (≈ 1030 µM). For the same compound, the MIC in the assay on HL110PA3 strain (RT6) (pH 7.0) is 1000 µg/mL (≈ 4130 µM). Moreover, the “Growth of the HL043PA1 strain (RT5 strain), viable cell count time course” value in assay [3] is “suppressed first bacteriostatically and then bactericidally after 10 hours from the start of culturing”.
As to `CCCCCCCCCCCCCCCC(=O)O` [Palmitic acid (C16:0), Palmitic acid], the minimal inhibitory concentration (MIC) was 250 µg/mL (≈ 975 µM) with HL045PA1 strain (RT4); 62.5 µg/mL (≈ 244 µM) with HL005PA1 strain (RT4); > 1000 µg/mL in the assay on HL110PA3 strain (RT6) (setting [4]); > 1000 µg/mL in the assay with HL110PA3 strain (RT6) (setting [5]); > 1000 µg/mL in the assay on HL110PA3 strain (RT6) (setting [6]); > 1000 µg/mL in the assay on HL110PA3 strain (RT6) (pH 6.5). For the same compound, the MIC in the assay on HL110PA3 strain (RT6) (pH 7.0) stood at 1000 µg/mL (≈ 3900 µM).
`CCCCCCCCCCCCCC(=O)O` [Myristic acid (C14:0), Myristic acid]: the minimal inhibitory concentration (MIC) is 31.3 µg/mL (≈ 137 µM) in the assay on HL045PA1 strain (RT4); 31.3 µg/mL (≈ 137 µM) with HL005PA1 strain (RT4); 250 µg/mL (≈ 1090 µM) in the assay with HL110PA3 strain (RT6) (setting [4]); > 1000 µg/mL in the assay on HL110PA3 strain (RT6) (setting [5]); > 1000 µg/mL in the assay on HL110PA3 strain (RT6) (setting [6]); 250 µg/mL (≈ 1090 µM) in the assay with HL110PA3 strain (RT6) (pH 6.5). In the assay with HL110PA3 strain (RT6) (pH 7.0), the MIC was determined as 500 µg/mL (≈ 2190 µM).
